In PubChem BioAssay (NCI):
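Method: 48-hour compound exposure of cells in 96-well plates, five concentrations, linear interpolation of endpoints. GI50: concentration for 50% inhibition of growth. TGI is the concentration that stops growth completely.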

How the values were obtained:
Experiment in all cases: NCI anticancer screen, dose series, 48 h
A549 NSCLC = system: A549 NSCLC
BT-549 breast = system: BT-549 breast
CCRF-CEM leukemia = system: CCRF-CEM leukemia
K-562 leukemia = system: K-562 leukemia
LOX IMVI melanoma = system: LOX IMVI melanoma
NCI-H23 lung = system: NCI-H23 lung
OVCAR-4 ovarian = system: OVCAR-4 ovarian
SF-539 CNS = system: SF-539 CNS
T-47D breast = system: T-47D breast
HOP-92 NSCLC = system: HOP-92 NSCLC

| Structure (SMILES) | TGI (A549 NSCLC) [µM] | TGI (BT-549 breast) [µM] | TGI (CCRF-CEM leukemia) [µM] | TGI (K-562 leukemia) [µM] | TGI (LOX IMVI melanoma) [µM] | TGI (NCI-H23 lung) [µM] | TGI (OVCAR-4 ovarian) [µM] | TGI (SF-539 CNS) [µM] | TGI (T-47D breast) [µM] | TGI (HOP-92 NSCLC) [µM] | GI50 (A549 NSCLC) [µM] | GI50 (BT-549 breast) [µM] | GI50 (CCRF-CEM leukemia) [µM] | GI50 (HOP-92 NSCLC) [µM] | GI50 (K-562 leukemia) [µM] | GI50 (LOX IMVI melanoma) [µM] | GI50 (NCI-H23 lung) [µM] | GI50 (OVCAR-4 ovarian) [µM] | GI50 (SF-539 CNS) [µM] | GI50 (T-47D breast) [µM] |
| --- | --- | --- | --- | --- | --- | --- | --- | --- | --- | --- | --- | --- | --- | --- | --- | --- | --- | --- | --- | --- |
| COc1cc([N+](=O)[O-])ccc1NC(=O)C(F)(F)F | > 100 | > 100 | > 100 | > 100 | > 100 | > 100 | > 100 | > 100 | > 100 | – | – | – | – | – | – | – | – | – | – | – |
| COC(=O)C(=O)C(C(=O)C(=O)Nc1ccc(C)cc1C)c1nc2ccccc2[nH]c1=O (stereo unspecified) | > 100 | – | > 100 | > 100 | > 100 | > 100 | > 100 | 98.5 | – | – | – | – | – | – | – | – | – | – | – | – |
| CCc1cccc(C)c1NC(C)=O | > 100 | – | > 100 | > 100 | – | > 100 | > 100 | > 100 | – | – | – | – | – | – | – | – | – | – | – | – |
| COC(=O)C(=O)C(C(=O)C=C(C)C)C(=O)C(=O)Nc1ccc(Cl)cc1C (stereo unspecified) | > 100 | – | > 100 | > 100 | > 100 | > 100 | > 100 | > 100 | – | > 100 | – | – | – | – | – | – | – | – | – | – |
| Cc1cc(NS(=O)(=O)c2ccc(NC(=O)c3cccc4c(=O)c5ccccc5[nH]c34)cc2)no1 | > 100 | – | 94.2 | > 100 | > 100 | > 100 | > 100 | > 100 | – | > 100 | – | – | – | – | – | – | – | – | – | – |
| Cc1ccc(N=NC(C(=O)c2ccccc2)C(=O)c2ccccc2)cc1 | > 100 | – | 69.4 | 88.2 | – | 63.2 | 61.6 | 97.3 | – | 41.5 | – | – | – | – | – | – | – | – | – | – |
| Cc1c2c(nn1-c1ccc(S(=O)(=O)/N=C3\SCC(=O)N3C(=O)c3ccccc3)cc1)-c1ccccc1CC2 | > 100 | 92.9 | 49 | > 100 | > 100 | 73.2 | > 100 | – | – | 66.2 | > 100 | 38.6 | 21 | 30.9 | 79.2 | > 100 | 27.7 | 77.5 | – | – |
| CC(=O)SCCC1c2[nH]c3ccccc3c2CCN1O (stereo unspecified) | > 100 | – | > 100 | > 100 | > 100 | > 100 | > 100 | > 100 | – | > 100 | – | – | – | – | – | – | – | – | – | – |
| CC[C@H](C)[C@H](NC(=O)[C@H]1CCCCN1C)C(=O)N(C)[C@H](CCc1nc(C(=O)N[C@@H](Cc2ccccc2)C[C@H](C)C(=O)OC)cs1)C(C)C | > 25 | 2.48 | > 25 | > 25 | > 25 | > 25 | > 25 | 1.53 | – | 8.33 | 1.1 | 0.177 | 0.265 | 0.292 | 0.121 | 0.353 | 0.866 | 1.36 | 0.464 | – |
| CC(C)(C)OC(=O)N(CCCN(CCn1c2c(c3ccccc3c1=O)C(=O)c1ccccc1-2)C(=O)OC(C)(C)C)CCn1c2c(c3ccccc3c1=O)C(=O)c1ccccc1-2 | > 50 | > 50 | > 50 | 46 | > 50 | > 50 | > 50 | > 50 | > 50 | – | > 50 | > 50 | 13.3 | – | 12.4 | > 50 | > 50 | > 50 | > 50 | > 50 |
| Cc1cccc(N2C(=O)C(Cl)=C(Cl)C2=O)c1 | > 100 | – | > 61 | > 83.2 | > 100 | > 100 | > 71.7 | > 100 | – | > 78.6 | – | – | – | – | – | – | – | – | – | – |
| Cn1cc(C2=C(c3cn(CCCN=C(N)N)c4ccccc34)C(=O)NC2=O)c2ccccc21 | > 25 | > 25 | > 25 | > 25 | > 25 | > 25 | > 25 | > 25 | > 25 | – | > 25 | > 25 | > 25 | – | > 25 | > 25 | > 25 | > 25 | > 25 | > 25 |
| CCCCn1c(-c2ccc(C(=O)O/N=C(\N)c3ccc(OC)cc3)cc2)nc(-c2ccccc2)c1-c1ccccc1 | 3.75 | – | 2.76 | – | 0.342 | – | – | 3.24 | 4.59 | 2.41 | 1.21 | – | 0.556 | 0.816 | – | 0.181 | – | – | 1.67 | 1.92 |
| O=C(O)c1cc(N=Nc2ccc([As](=O)(O)O)cc2)ccc1O | > 100 | > 100 | > 100 | > 100 | > 100 | > 100 | > 100 | > 100 | > 100 | – | – | – | – | – | – | – | – | – | – | – |
| Cc1ccc(NC(=O)C2C(=O)N(c3ccc(C)c(C)c3)C(=O)/C2=N/O)cc1C (stereo unspecified) | > 100 | – | > 100 | > 100 | 38.3 | > 100 | – | > 100 | – | > 100 | – | – | – | – | – | – | – | – | – | – |
| O=C(CC(=O)N1N=C(c2ccccc2)C(N=Nc2ccc(Cl)cc2)C1=O)Nc1ccccc1Cl (stereo unspecified) | > 100 | – | – | > 100 | > 100 | 97 | 37.2 | 68.2 | – | – | – | – | – | – | – | – | – | – | – | – |
| COC(=O)c1cc2c(c(C(=O)OC)c1O)C(=O)C=CC2=O | > 58.3 | – | 4.31 | > 22.7 | > 56.9 | > 31.6 | > 54 | > 56.1 | – | > 21.9 | > 9.1 | – | – | – | – | > 9.1 | > 9.1 | > 9.1 | > 9.1 | – |
| C[C@]12CC[C@@H]3c4ccc(Oc5nc(N6CC6)nc(N6CC6)n5)cc4CC[C@H]3[C@@H]1CCC2=O | 12.8 | 25.3 | 16.2 | 17.5 | 3.1 | 19 | 15.2 | 7.43 | 19.4 | – | 1.5 | 5.92 | 1.6 | – | 3.02 | 1.37 | 3.36 | 3.38 | 2.2 | 3.55 |
